The test system of one assay is HEK-Mock cells. Briefly: CellTiter-Blue cell viability assay with HEK-Mock cells. The class given is cell-based. To be noted: Homo sapiens, 72 h. On the technique in general: Resazurin is reduced to fluorescent resorufin, in cell work by metabolically active cells.
The test system of another assay is OVCAR-3. Briefly: CellTiter-Blue cell viability assay: OVCAR-3. The format is cell-based. To be noted: Homo sapiens, 5061DOX assay 2, 72 hour incubation.
The subject of another assay is SK-OV-3. Put plainly: CellTiter-Blue cell viability assay: SK-OV-3. The format is cell-based. The note with it: Homo sapiens, 5061DOX assay 2, 72 hour incubation.
For another assay, the system named is HEK-mFAP cells. Briefly: CellTiter-Blue cell viability assay with HEK-mFAP cells. The class given is cell-based, human.
For the next assay, the system named is MCF-7. Briefly: CellTiter-Blue cell viability assay: MCF-7. The class given is cell-based. To be noted: Homo sapiens, MCF7, 5061DOX assay 2, 72 hour incubation.
The target in the next assay is T1, FAP (Mus musculus, UniProt P97321).
T1 construct: host or cells: HEK (human embryonic kidney) cells, stably transfected
T1 sequence (P97321 1-761): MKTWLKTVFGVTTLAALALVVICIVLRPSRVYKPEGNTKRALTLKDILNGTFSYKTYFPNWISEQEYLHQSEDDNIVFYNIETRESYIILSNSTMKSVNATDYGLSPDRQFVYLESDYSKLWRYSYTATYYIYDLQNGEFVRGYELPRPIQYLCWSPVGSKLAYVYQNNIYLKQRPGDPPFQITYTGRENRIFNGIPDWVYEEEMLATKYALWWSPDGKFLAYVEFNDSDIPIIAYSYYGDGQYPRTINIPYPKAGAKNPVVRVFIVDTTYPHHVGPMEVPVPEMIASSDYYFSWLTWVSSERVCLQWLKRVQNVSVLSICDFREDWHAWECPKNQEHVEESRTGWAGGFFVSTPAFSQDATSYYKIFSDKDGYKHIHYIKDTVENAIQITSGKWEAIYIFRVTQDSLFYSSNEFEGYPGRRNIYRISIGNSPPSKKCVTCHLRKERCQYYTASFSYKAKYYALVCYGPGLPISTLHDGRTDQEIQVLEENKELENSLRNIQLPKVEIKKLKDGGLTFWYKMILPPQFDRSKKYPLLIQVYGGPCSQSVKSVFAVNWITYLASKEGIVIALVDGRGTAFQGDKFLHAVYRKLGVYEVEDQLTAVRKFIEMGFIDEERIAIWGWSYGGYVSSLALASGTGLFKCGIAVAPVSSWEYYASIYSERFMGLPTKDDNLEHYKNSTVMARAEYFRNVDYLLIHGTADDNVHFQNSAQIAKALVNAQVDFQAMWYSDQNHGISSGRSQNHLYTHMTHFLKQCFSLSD
Put plainly: Inhibition of FAP activity on HEK-mFAP cells. The class given is cell-based. To be noted: 5061DOX assay 3.

The mark [1] stands for this setting: 5061DOX assay 2, 72 hour incubation, read-out: EC50 (prodrug alone).
Where [2] appears, read: read-out: EC50 (prodrug + 25 nM FAP).
[3] abbreviates: read-out: EC50 (prodrug + 100 uM 5057).

Where two headings read alike, the source gives them in different places.

The term EC50 denotes the concentration needed to bring the measured effect to its halfway point. Usually IC50 stands for the concentration that gives 50% inhibition. A higher IC50 goes with weaker potency in that assay. With `COc1cccc2c1C(=O)c1c(O)c3c(c(O)c1C2=O)C[C@@](O)(C(=O)CO)C[C@@H]3OC1CC(NC(=O)[C@@H]2CCCN2C(=O)[C@@H](C)NC(=O)c2ccnc3cccc(Br)c23)C(O)C(C)O1` (some centres unmarked) [Compound 5061DOX], the EC50 in the assay on HEK-Mock cells (5061DOX assay 1, 72 hour incubation, read-out: EC50 (prodrug + 25 nM FAP)) was 0.28 µM; in the assay with HEK-Mock cells (5061DOX assay 1, 72 hour incubation, read-out: EC50 (prodrug + 50 nM PREP)) it was above 100 µM; in the assay with HEK-Mock cells (5061DOX assay 1, 72 hour incubation, read-out: EC50 (prodrug + 100 uM 5057)), above 100 µM; in the assay with HEK-Mock cells (5061DOX assay 1, 72 hour incubation, read-out: EC50 (prodrug alone)), above 100 µM; in the assay on HEK-Mock cells (5061DOX assay 2, 72 hour incubation, read-out: EC50 (prodrug + 25 nM FAP)) it was 0.25 µM; with HEK-Mock cells (setting [1]) it was above 100 µM. Besides, the EC50 with OVCAR-3 (setting [2]) was 1.5 µM; in the assay with OVCAR-3 (setting [3]), above 100 µM; in the assay on OVCAR-3 (read-out: EC50 (prodrug alone)) it was above 100 µM; in the assay with SK-OV-3 (setting [2]), 0.9 µM; in the assay on SK-OV-3 (setting [3]) it was above 100 µM; with SK-OV-3 (read-out: EC50 (prodrug alone)), above 100 µM. In addition, the EC50 is above 100 µM in the assay with HEK-mFAP cells (5061DOX assay 2, 72 hour incubation, read-out: EC50 (prodrug + 100 uM 5057)); above 100 µM with HEK-mFAP cells (setting [1]); above 100 µM in the assay with HEK-mFAP cells (Homo sapiens, 5061DOX assay 1, 72 hour incubation, read-out: EC50 (prodrug + 100 uM 5057)); above 100 µM in the assay with HEK-mFAP cells (Homo sapiens, 5061DOX assay 1, 72 hour incubation, read-out: EC50 (prodrug alone)); above 100 µM with MCF-7 (setting [2]); above 100 µM in the assay on MCF-7 (setting [3]). Also, the EC50 in the assay with MCF-7 (read-out: EC50 (prodrug alone)) is above 100 µM. The IC50 on FAP was above 10 µM.

Source of the values: patent US11925655B2, “FAP-activated therapeutic agents, and uses related thereto” (Bach Biosciences, LLC, priority 2014, dated 2024).
